{"source": "patent US4613618A", "about": "“Method for treating disorders of lipid metabolism using benzene sulfonamides” (Choay S.A., priority 1981, dated 1986)", "key": {"[1]": {"test_system": "aorta", "assay": "Atherosclerosis inducing diet: microscopic observations (aorta, histology)", "type": "in vivo, Wistar female rats", "parameters": "HISTOLOGICAL QUOTATION, percentage reduction with respect to the diet controls / NUMBER OF ATHEROSCLEROTIC AREAS, percentage reduction with respect to the diet controls: concentration or dose not given beside the values", "method": "(§1) In a second experimental series, tha activity of certain products according to the invention were tested on animals which had received an atherosclerosis inducing diet for a long period.\n(§2) The test was carried out on Wistar female rats, of weight about 160-180 g.\n(§3) The animals received food coming from the National Nutrition plant of Villemoisson-sur-Orge, France, and denoted by the reference UAR AO3, enriched in cholesterol (0.5%) and in cholic acid (0.5%).\n(§4) After 15 days of the atherosclerosis inducing diet and whilst maintaining the animals on an atherosclerosis inducing diet, they were given orally for 4 days 250.000 iu/kg of vitamine D2 marketed under the name Sterogyl 25H, in solution in olive oil.\n(§5) Then the products under study were administered for 4 weeks, from the end of the administration of the lesion-inducing agent.\n(§6) At the end of the study, all the animals still alive were sacrificed, and various organs were removed, particularly the aorta, for histological study of the latter. Two criteria were examined: the number of atherosclerosis areas and the severity of the lesions.\nCalculation of the figures was carried out in the following manner:\nas regards the severity of the lesions, a quotation ranging from 0 for absence of a lesion to 5+ for the severest lesions was made, and this for each type of alteration concerned (increase of interlamellar spaces, interruption of elastic laminae, thickening of the elastic laminae, calcium deposition, mucopolysaccharide deposition); then all of the results per batch of animals were added;\nas regards the number of atherosclerosis areas, by counting the latter and adding all the figures obtained per batch of animals.\n(§7) Then the pecentage reduction with respect to the diet controls and the score were calculated, that is to say the ratio of the intensity of the activity of the product tested with respect to that of the activity of clofibrate, reckoned as 1.\nTable XI gives the microscopic results with histological quotation as regards the severity of the lesions, and the number of atherosclerotic areas."}, "[2]": {"assay": "Toxicity of Compound No. 1 038, oral route, mice", "type": "in vivo", "details": "mouse, in vivo, po", "description": "(§8) For Compound No. 1 038, the study of the toxicity has been carried out on rats and on mice to which the product has been administered by the oral route.\n(§9) The results (expressed in g/kg) relative to LD50, LD0, and LD100 are gathered in the following table."}, "[3]": {"test_system": "mice", "assay": "Toxicity of Compound No. 1 038, oral route, mice", "type": "in vivo", "description": "as §8, §9"}, "[4]": {"test_system": "rats", "assay": "Toxicity of Compound No. 1 038, oral route, rats", "type": "in vivo", "description": "as §8, §9"}, "[5]": {"assay": "Toxicity of Compound No. 1 038, oral route, rats", "type": "in vivo", "details": "rat, in vivo, po", "description": "as §8, §9"}, "[6]": {"assay": "Toxicity, general statements", "details": "Compound No. 1 038: rats and mice, oral route; medicaments: general"}, "[7]": {"test_system": "atherosclerosis inducing diet (cholesterol, cholic acid, vitamine D2)", "assay": "Atherosclerosis inducing diet: biochemical exams", "type": "in vivo, Wistar female rats", "parameters": "CHOLESTEROL T, % reduction with respect to the control diet / CHOLESTEROL HDL, % with respect to the control diet / CHOLESTEROL LDL, % reduction with respect to the control diet / TRIGLYCERIDES, % reduction with respect to the control diet: concentration or dose not given beside the values", "method": "as §1, §2, §3, §4, §5\nAt the end of the study, biochemical examinations were carried out on all the animals [total cholesterol, high density lipoprotein (HDL) and cholesterol low density lipoprotein (LDL), and triglycerides].\nas §7\nTable IX gives the detailed results of the biochemical examination:\n(a) in % reduction with respect to the control die;\n(b) as score, with respect to the reference product, clofibrate, the latter being counted as 1."}, "[8]": {"assay": "Subacute toxicity of compound No. 1 038", "type": "in vivo", "details": "about one month; 150,500 and 1 000 mg/kg"}, "[9]": {"test_system": "atherosclerosis lesions", "assay": "Atherosclerosis inducing diet: macroscopic exams (affected animals)", "type": "in vivo, Wistar female rats", "method": "as §1, §2, §3, §4, §5, §6, §7\nTable X gives the results of macroscopic examinations:\n(a) in % decrease in animals afflicted with lesions;\n(b) as score with respect to the reference clofibrate, of which the score was counted as 1."}}}
{"smiles": "O=C(O)CCCNS(=O)(=O)c1cccc(C(F)(F)F)c1", "note": "[Compound No. 1038, (trifluoromethyl-3 benzenesulfonylamino)-4 butyric acid]", "values": [{"measurement": "NUMBER OF ATHEROSCLEROTIC AREAS, percentage reduction with respect to the diet controls", "setting": "[1]", "value": "78,18%"}, {"measurement": "NUMBER OF ATHEROSCLEROTIC AREAS", "setting": "[1]; TEM-diet 160", "value": 35, "unit": "%"}, {"measurement": "HISTOLOGICAL QUOTATION, score with respect to clofibrate", "setting": "[1]; clofibrate counted as 1", "value": "1,06"}, {"measurement": "NUMBER OF ATHEROSCLEROTIC AREAS, score with respect to clofibrate", "setting": "[1]; clofibrate counted as 1", "value": "1,42"}, {"measurement": "HISTOLOGICAL QUOTATION, percentage reduction with respect to the diet controls", "setting": "[1]; severity of the lesions", "value": "66,31%"}, {"measurement": "HISTOLOGICAL QUOTATION", "setting": "[1]; severity of the lesions, TEM-diet 132", "value": 44, "unit": "%"}, {"measurement": "LD50", "setting": "[2]; female", "value": 6600, "unit": "mg/kg"}, {"measurement": "LD50", "setting": "[2]; male", "value": 6000, "unit": "mg/kg"}, {"measurement": "LD0", "setting": "[3]; female", "value": 5000, "unit": "mg/kg"}, {"measurement": "LD100", "setting": "[3]; female", "value": 9000, "unit": "mg/kg"}, {"measurement": "LD0", "setting": "[3]; male", "value": 4000, "unit": "mg/kg"}, {"measurement": "LD100", "setting": "[3]; male", "value": 9000, "unit": "mg/kg"}, {"measurement": "LD0", "setting": "[4]; female", "value": 5000, "unit": "mg/kg"}, {"measurement": "LD100", "setting": "[4]; female", "value": "> 20000", "unit": "mg/kg"}, {"measurement": "LD0", "setting": "[4]; male", "value": 5000, "unit": "mg/kg"}, {"measurement": "LD100", "setting": "[4]; male", "value": 20000, "unit": "mg/kg"}, {"measurement": "LD50", "setting": "[5]; female", "value": 15500, "unit": "mg/kg"}, {"measurement": "LD50", "setting": "[5]; male", "value": 13000, "unit": "mg/kg"}, {"measurement": "toxicity (in words)", "setting": "[6]", "value": "presents no toxicity"}, {"measurement": "TRIGLYCERIDES, % reduction with respect to the control diet", "setting": "[7]; 4 weeks administration", "value": "-20,69%"}, {"measurement": "CHOLESTEROL HDL, % with respect to the control diet", "setting": "[7]; HDL, 4 weeks administration", "value": "+83,33%"}, {"measurement": "CHOLESTEROL LDL, % reduction with respect to the control diet", "setting": "[7]; LDL, 4 weeks administration", "value": "-58,26%"}, {"measurement": "CHOLESTEROL HDL, Score with respect to clofibrate", "setting": "[7]; clofibrate counted as 1", "value": "0,80"}, {"measurement": "CHOLESTEROL LDL, Score with respect to clofibrate", "setting": "[7]; clofibrate counted as 1", "value": "1,05"}, {"measurement": "CHOLESTEROL T, Score with respect to clofibrate", "setting": "[7]; clofibrate counted as 1", "value": "1,06"}, {"measurement": "TRIGLYCERIDES, Score with respect to clofibrate", "setting": "[7]; clofibrate counted as 1", "value": "0,86"}, {"measurement": "CHOLESTEROL T, % reduction with respect to the control diet", "setting": "[7]; total cholesterol, 4 weeks administration", "value": "-51,88%"}, {"measurement": "therapeutic index", "setting": "[8]", "value": "very satisfactory"}, {"measurement": "% decrease in animals afflicted with lesions", "setting": "[9]", "value": "33,33%"}, {"measurement": "Score with respect to the reference clofibrate (animals afflicted with lesions)", "setting": "[9]; clofibrate counted as 1", "value": "1,83"}, {"measurement": "AFFECTED ANIMALS %", "setting": "[9]; macroscopic exams, TEM-diet 100", "value": "66,67%"}]}
